Measured values taken from US7557092B2, “Purinergic modulation of smell” (University of Utah Research Foundation, priority 2002, dated 2009).

What was measured:
[1] = system: sustentacular cells in mouse olfactory epithelium slices; assay: confocal calcium imaging of fluo-4 AM loaded olfactory epithelium slices, sustentacular cells; assay type: cell-based; settings: 10 μM agonist superfused onto slice
Source text: To study the effects of ATP on odor responses, acutely prepared slices of mouse olfactory epithelium were used. Confocal imaging of fluo-4 AM-loaded olfactory epithelium slices allows simultaneous recording from identified structures within the olfactory epithelium, i.e., both ORNs and sustentacular cells. […] The difference in robustness can be due to poor access to the ATP stimulus: odorant receptors are on the cilia of the ORNs, which extend beyond the outer edge of the olfactory epithelium, whereas purinergic receptors are located deeper within the olfactory epithelium. […] The latency of activation for the ATP-evoked calcium transient was shorter in the ORN (FIG. 3B2, solid up arrowhead) than in sustentacular cells (FIG. 3B3, open down arrowhead). Collectively, this was consistent with ORNs expressing the faster P2X receptors, and the sustentacular cells expressing the slower G-protein coupled P2Y receptors.
To prepare olfactory epithelium slices, neonatal mice (postnatal day 0-6) were quickly decapitated, and the skin and lower jaw were removed. Tissue was mounted in ice cold Ringers onto a vibratome-cutting block and 300 μm slices were made. Primary cultures of mouse ORNs were made using the same protocol and culture conditions as described for rat olfactory receptor neurons (Vargas and Lucero, 1999a). Briefly, tissue was placed in divalent cation-free Ringers containing 10 mg/ml bovine serum albumin, 1 mg/ml deoxyribonuclease II and 44 U/ml dispase, incubated at 37° C. for 45 min. The tissue was washed, triturated, and filtered through a […] mesh and […] cells were plated onto concanavalin A-coated coverslips and allowed to settle for 20 min. An additional 1.5 ml of culture medium was added (DMEM supplemented with […] ascorbic acid, 1X insulin-transferrin-seleniumX (GIBCO BRL), 2 mM glutamine, 100 U/ml penicillin G and […] streptomycin).
[Ca^2+]i was determined using confocal imaging of fluo-4 AM (18 μM; Molecular Probes) loaded cells and slices. Cells or slices were placed in a laminar flow chamber (Warner Instruments) and perfused continuously with Ringers solution at a flow rate of 1.5-2.0 ml/min. Ringers contained (mM): 140 NaCl, 5 KCl, 1 MgCl2, 2 CaCl2, 10 HEPES, 10 glucose, […] and 400 nM tetrodotoxin. Test solutions were applied using bath exchange and a small volume loop injector (200 μl). A Zeiss LSM 510 confocal laser scanning system was used for data collection and analysis. Time series experiments were performed collecting 1400×700 pixel images at 0.2-0.4 Hz. The fluorometric signals obtained are expressed as relative fluorescence change, ΔF/F═(F−F0)/F0, where F0 is the basal fluorescence level. Increases in F greater than 10% above baseline noise were considered responses.

[2] = system: ORNs in neonatal mouse OE slices; assay: on-cell current-clamp recording of cyclic nucleotide-induced electrical responses; assay type: cell-based; settings: 10 μM ATP co-applied with cyclic nucleotide mixture (IBMX, CPT-cAMP, 8-Br-cGMP), n=3 cells
Procedure: Filled triangles correspond to the time of loop injection of the test solutions. […] Various test solutions were superfused onto the slice for 30 seconds, indicated by the shaded region. The cell was allowed to recover for 7 minutes after each test application. Note that the coapplication of ATP (10 μM) and the mixture suppressed the evoked membrane potential changes. […] N=3 from three slices, also indicated in each column.
Electro-olfactogram and on-cell recordings: Slices of P0-P6 mouse OE were prepared as described above and mounted in a perfusion chamber with a bath flow of […]. Test chemicals were introduced using a rotary injection valve (Rheodyne, Cotati, Calif.). The electro-olfactogram (EOG) recording electrode (3 M NaCl in 1% agar; tip diameter, 5-10 um) was positioned along the dorsal portion of the nasal septum. The differential electrode (identical to the recording electrode) was positioned over skull cartilage and an […] ground electrode was connected to the bath solution via a 3 M KCl agar bridge. […]
For the noninvasive on-cell recordings (Chiu et al., 1997), the same electronics were used as described for nystatin-patch experiments. […] The time course of solution delivery was determined by placing an electrode in a slice and switching from Ringer's solution to distilled water. […]

With Nc1ncnc2c1ncn2[C@@H]1O[C@H](COP(=O)(O)OP(=O)(O)OP(=O)(O)O)[C@@H](O)[C@H]1O [ATP, Adenosine 5′-triphosphate] as the compound, how does the “agonist-evoked calcium transients in sustentacular cells” value [1] read?
The value was “evoked calcium transients”.

And the “reduction of the electrical activity of the ORN” value [2]?
Its value is 67±2%.
